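Interpolation was linear, between the two tested concentrations surrounding the appropriate level; five concentrations were tested over 48 hours in 96-well plates. At the GI50, growth is halved.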 The source made the active and inactive calls. Cut-off read from the data, not from the text of the source: active = GI50 up to about 1.1 µM and inactive = higher.
Experiments:
Assay in all cases: growth of human tumour cells (NCI), 48 h
DU-145 = tested on: DU-145
NCI/ADR-RES = tested on: NCI/ADR-RES
SR = tested on: SR
HT-29 = tested on: HT-29
NCI-H226 = tested on: NCI-H226
OVCAR-8 = tested on: OVCAR-8
SNB-19 = tested on: SNB-19
SW-620 = tested on: SW-620
SK-MEL-2 = tested on: SK-MEL-2
SF-268 = tested on: SF-268
SK-MEL-5 = tested on: SK-MEL-5
OVCAR-4 = tested on: OVCAR-4
SF-295 = tested on: SF-295
NCI-H23 = tested on: NCI-H23
SK-OV-3 = tested on: SK-OV-3
HCC 2998 = tested on: HCC 2998
K562 = tested on: K562
HCT-15 = tested on: HCT-15
MDA-MB-231 = tested on: MDA-MB-231
LOX IMVI = tested on: LOX IMVI
KM12 = tested on: KM12
786-0 = tested on: 786-0
Hs-578T = tested on: Hs-578T
COLO 205 = tested on: COLO 205
SN12C = tested on: SN12C
SNB-75 = tested on: SNB-75
T47D = tested on: T47D
SK-MEL-28 = tested on: SK-MEL-28
Malme-3M = tested on: Malme-3M
UACC-257 = tested on: UACC-257
U-251 = tested on: U-251
NCI-H460 = tested on: NCI-H460
CAKI-1 = tested on: CAKI-1
HCT-116 = tested on: HCT-116
IGROV-1 = tested on: IGROV-1
MOLT-4 = tested on: MOLT-4
TK-10 = tested on: TK-10
OVCAR-5 = tested on: OVCAR-5
BT-549 = tested on: BT-549
MCF7 = tested on: MCF7
HOP-62 = tested on: HOP-62
A549 = tested on: A549
PC-3 = tested on: PC-3
SF-539 = tested on: SF-539
CCRF-CEM = tested on: CCRF-CEM
NCI-H522 = tested on: NCI-H522
UACC-62 = tested on: UACC-62
MDA-N = tested on: MDA-N
M14 = tested on: M14
EKVX = tested on: EKVX
UO-31 = tested on: UO-31
RXF 393 = tested on: RXF 393
ACHN = tested on: ACHN
HL-60 = tested on: HL-60
OVCAR-3 = tested on: OVCAR-3
A498 = tested on: A498
MDA-MB-435 = tested on: MDA-MB-435
RPMI-8226 = tested on: RPMI-8226

SMILES: CC12CCC(=O)[C@@]1(C)CCCC2=O (some centres not stated)
- GI50 (DU-145): > 100 µM (inactive)
- GI50 (NCI/ADR-RES): > 100 µM (inactive)
- GI50 (SR): > 100 µM (inactive)
- GI50 (HT-29): > 100 µM (inactive)
- GI50 (NCI-H226): > 100 µM (inactive)
- GI50 (OVCAR-8): > 100 µM (inactive)
- GI50 (SNB-19): > 100 µM (inactive)
- GI50 (SW-620): > 100 µM (inactive)
- GI50 (SK-MEL-2): > 100 µM (inactive)
- GI50 (SF-268): > 100 µM (inactive)
- GI50 (SK-MEL-5): > 10 µM (inactive)
- GI50 (OVCAR-4): > 100 µM (inactive)
- GI50 (SF-295): > 100 µM (inactive)
- GI50 (NCI-H23): > 100 µM (inactive)
- GI50 (SK-OV-3): > 100 µM (inactive)
- GI50 (HCC 2998): > 100 µM (inactive)
- GI50 (K562): > 100 µM (inactive)
- GI50 (HCT-15): > 100 µM
- GI50 (MDA-MB-231): > 100 µM (inactive)
- GI50 (LOX IMVI): > 100 µM (inactive)
- GI50 (KM12): > 100 µM (inactive)
- GI50 (786-0): > 100 µM (inactive)
- GI50 (Hs-578T): > 100 µM (inactive)
- GI50 (COLO 205): > 100 µM (inactive)
- GI50 (SN12C): > 100 µM (inactive)
- GI50 (SNB-75): > 10 µM (inactive)
- GI50 (T47D): > 100 µM (inactive)
- GI50 (SK-MEL-28): > 100 µM (inactive)
- GI50 (Malme-3M): > 100 µM (inactive)
- GI50 (UACC-257): > 100 µM (inactive)
- GI50 (U-251): > 100 µM (inactive)
- GI50 (NCI-H460): > 100 µM (inactive)
- GI50 (CAKI-1): > 100 µM (inactive)
- GI50 (HCT-116): > 100 µM (inactive)
- GI50 (IGROV-1): > 100 µM (inactive)
- GI50 (MOLT-4): > 100 µM (inactive)
- GI50 (TK-10): > 100 µM (inactive)
- GI50 (OVCAR-5): > 100 µM (inactive)
- GI50 (BT-549): > 100 µM (inactive)
- GI50 (MCF7): > 100 µM (inactive)
- GI50 (HOP-62): > 100 µM (inactive)
- GI50 (A549): > 100 µM (inactive)
- GI50 (PC-3): > 100 µM (inactive)
- GI50 (SF-539): > 100 µM (inactive)
- GI50 (CCRF-CEM): > 100 µM (inactive)
- GI50 (NCI-H522): > 100 µM (inactive)
- GI50 (UACC-62): > 100 µM (inactive)
- GI50 (MDA-N): > 100 µM (inactive)
- GI50 (M14): > 100 µM (inactive)
- GI50 (EKVX): > 100 µM (inactive)
- GI50 (UO-31): > 100 µM (inactive)
- GI50 (RXF 393): 42.2 µM (inactive)
- GI50 (ACHN): > 100 µM (inactive)
- GI50 (HL-60): > 100 µM (inactive)

SMILES: N#Cc1cnn2cc[nH]c12
- GI50 (DU-145): > 100 µM (inactive)
- GI50 (NCI/ADR-RES): > 100 µM (inactive)
- GI50 (SR): > 100 µM (inactive)
- GI50 (HT-29): > 100 µM (inactive)
- GI50 (OVCAR-3): > 100 µM (inactive)
- GI50 (NCI-H226): > 100 µM (inactive)
- GI50 (OVCAR-8): > 100 µM (inactive)
- GI50 (SNB-19): > 100 µM (inactive)
- GI50 (SW-620): > 100 µM (inactive)
- GI50 (SK-MEL-2): > 100 µM (inactive)
- GI50 (SF-268): > 100 µM (inactive)
- GI50 (SK-MEL-5): > 100 µM (inactive)
- GI50 (OVCAR-4): > 100 µM (inactive)
- GI50 (SF-295): > 100 µM (inactive)
- GI50 (NCI-H23): > 100 µM (inactive)
- GI50 (SK-OV-3): > 100 µM (inactive)
- GI50 (HCC 2998): > 100 µM (inactive)
- GI50 (K562): > 100 µM (inactive)
- GI50 (HCT-15): > 100 µM
- GI50 (MDA-MB-231): > 100 µM (inactive)
- GI50 (KM12): > 100 µM (inactive)
- GI50 (786-0): > 100 µM (inactive)
- GI50 (Hs-578T): > 100 µM (inactive)
- GI50 (COLO 205): > 100 µM (inactive)
- GI50 (SN12C): > 100 µM (inactive)
- GI50 (SNB-75): > 100 µM (inactive)
- GI50 (T47D): > 100 µM (inactive)
- GI50 (SK-MEL-28): > 100 µM (inactive)
- GI50 (UACC-257): > 100 µM (inactive)
- GI50 (U-251): > 100 µM (inactive)
- GI50 (NCI-H460): > 100 µM (inactive)
- GI50 (CAKI-1): > 100 µM (inactive)
- GI50 (HCT-116): > 100 µM (inactive)
- GI50 (IGROV-1): > 100 µM (inactive)
- GI50 (MOLT-4): > 100 µM (inactive)
- GI50 (TK-10): > 100 µM (inactive)
- GI50 (A498): > 100 µM (inactive)
- GI50 (OVCAR-5): > 100 µM (inactive)
- GI50 (BT-549): > 100 µM (inactive)
- GI50 (MCF7): > 100 µM (inactive)
- GI50 (HOP-62): > 100 µM (inactive)
- GI50 (A549): > 100 µM (inactive)
- GI50 (PC-3): > 100 µM (inactive)
- GI50 (SF-539): 10 µM (inactive)
- GI50 (CCRF-CEM): > 100 µM (inactive)
- GI50 (NCI-H522): > 100 µM (inactive)
- GI50 (UACC-62): > 100 µM (inactive)
- GI50 (MDA-N): > 100 µM (inactive)
- GI50 (M14): > 100 µM (inactive)
- GI50 (EKVX): > 100 µM (inactive)
- GI50 (UO-31): > 100 µM (inactive)
- GI50 (ACHN): > 100 µM (inactive)
- GI50 (HL-60): > 100 µM (inactive)

SMILES: COC(=O)C1=C(O)C(C(=O)OC)[C@@]2(O)[C@@H](C(=O)OC)[C@H](C)C[C@@H]1[C@@H]2C(=O)OC (some centres not stated)
- GI50 (DU-145): 20.2 µM (inactive)
- GI50 (SR): 21.3 µM (inactive)
- GI50 (HT-29): 27.6 µM (inactive)
- GI50 (OVCAR-3): 20 µM (inactive)
- GI50 (NCI-H226): 39.3 µM (inactive)
- GI50 (SNB-19): 34.2 µM (inactive)
- GI50 (MDA-MB-435): 14.7 µM (inactive)
- GI50 (SK-MEL-2): 21.4 µM (inactive)
- GI50 (RPMI-8226): 23.8 µM (inactive)
- GI50 (NCI-H23): 37.5 µM (inactive)
- GI50 (SK-OV-3): 26 µM (inactive)
- GI50 (HCC 2998): 16.6 µM (inactive)
- GI50 (K562): 23.2 µM (inactive)
- GI50 (HCT-15): 25.9 µM
- GI50 (MDA-MB-231): 14.1 µM (inactive)
- GI50 (LOX IMVI): 32.5 µM (inactive)
- GI50 (KM12): 23.5 µM (inactive)
- GI50 (Hs-578T): 19.9 µM (inactive)
- GI50 (SN12C): 36.6 µM (inactive)
- GI50 (SNB-75): 22.9 µM (inactive)
- GI50 (T47D): 46.8 µM (inactive)
- GI50 (SK-MEL-28): 46.2 µM (inactive)
- GI50 (Malme-3M): 42.9 µM (inactive)
- GI50 (UACC-257): 63.1 µM (inactive)
- GI50 (U-251): 20.5 µM (inactive)
- GI50 (NCI-H460): 20 µM (inactive)
- GI50 (HCT-116): 35.5 µM (inactive)
- GI50 (MOLT-4): 28.3 µM (inactive)
- GI50 (TK-10): 57.9 µM (inactive)
- GI50 (A498): 15.5 µM (inactive)
- GI50 (OVCAR-5): 30.5 µM (inactive)
- GI50 (BT-549): 32.9 µM (inactive)
- GI50 (MCF7): 34.8 µM (inactive)
- GI50 (HOP-62): 31.8 µM (inactive)
- GI50 (SF-539): 18.4 µM (inactive)
- GI50 (CCRF-CEM): 28.1 µM (inactive)
- GI50 (NCI-H522): 25.2 µM (inactive)
- GI50 (UACC-62): 23.7 µM (inactive)
- GI50 (MDA-N): 15.2 µM (inactive)
- GI50 (M14): 20.6 µM (inactive)
- GI50 (EKVX): 22.4 µM (inactive)
- GI50 (UO-31): 21.5 µM (inactive)
- GI50 (RXF 393): 15.4 µM (inactive)
- GI50 (ACHN): 59.8 µM (inactive)
- GI50 (HL-60): 25.9 µM (inactive)
